One series concerns C57BL/6J mice. The experiment in a line: Oral glucose tolerance test (OGTT). In kind it is in vivo. To be noted: 3 nmol/kg s.c., 24 hours before glucose loading. On the procedure:
An oral glucose tolerance test (OGTT) was carried out using C57BL/6J mice with a 50% dextrose solution dosed at 5 ml/kg. Testing concentrations of 0.1 nmol/kg, 0.3 nmmol/kg, 3 nmol/kg or 10 nmol/kg were selected depending on the peptide. Each peptide or a vehicle (control group) was subcutaneously administered 24 hours (unless shown otherwise) before glucose loading and the blood glucose was measured at 0, 15, 30, and 60 minutes after glucose dosing.
% inhibition=(1−(AUC cpd−AUC naïve/AUC veh−AUC naïve))×100.

Series [1] is described as follows: Solubility in phosphate buffer pH 7.4. The method, boiled down: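 3 mg of peptide treated with 100 μL portions of 200 mM phosphate buffer pH 7.4, sonicating/vortexing up to 1 min, with further buffer added until fully dissolved. Solubility then quantified by HPLC.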
A further series concerns the target T1, human GLP-1R (Homo sapiens, UniProt P43220).
T1 construct: HEK-293T cells overexpressing full-length human GLP-1R; FLAG (N); host or cells: HEK-293T
The experiment in a line: Human GLP1R agonist activity, intracellular cAMP accumulation. The format is cell-based. To be noted: HEK-293T cells overexpressing human GLP-1R, 1 hr. On the procedure:
Cells are cultured per the manufacturer's protocol in DMEM with 10% fetal bovine serum and 1 μg/mL puromycin and stored in frozen aliquots to be used as assay ready cells. On the day of the assay, cells are removed from frozen storage, washed two times in 1× Kreb's Ringer Buffer (Zenbio, Research Triangle Park, N.C.), and re-suspended to a concentration of 4×10^5 cells/mL in 1× Kreb's Ringer Buffer. […] Cells are incubated with test compound for 1 hr at room temperature in the dark, and cAMP accumulation is measured using the Cisbio HiRange cAMP assay kit (Bedford, Mass.) per the manufacturer's protocol. Anti-cAMP antibody and d2-cAMP tracer reagents diluted in lysis/detection buffer are incubated in the dark for 1 hr, and results are measured on an Envision plate reader (Perkin Elmer, Waltham, Mass.). Data is normalized using 1 nm GLP-1 as 100% activity, and DMSO alone as 0% activity.

Setting [2] is: pH 7.4, aqueous buffer, pH 7.4 Phosphate Buffer - Solubility, 200 mM Phosphate buffer pH 7.4.
Where [3] appears, read: pH 7.4, solubility in phosphate buffer at pH 7.4, 200 mM phosphate buffer pH 7.4.
[4] abbreviates: read-out: Human GLP1R cAMP EC50, HEK293T.

Where two headings read alike, the source gives them in different places.

T1 sequence (P43220 24-463): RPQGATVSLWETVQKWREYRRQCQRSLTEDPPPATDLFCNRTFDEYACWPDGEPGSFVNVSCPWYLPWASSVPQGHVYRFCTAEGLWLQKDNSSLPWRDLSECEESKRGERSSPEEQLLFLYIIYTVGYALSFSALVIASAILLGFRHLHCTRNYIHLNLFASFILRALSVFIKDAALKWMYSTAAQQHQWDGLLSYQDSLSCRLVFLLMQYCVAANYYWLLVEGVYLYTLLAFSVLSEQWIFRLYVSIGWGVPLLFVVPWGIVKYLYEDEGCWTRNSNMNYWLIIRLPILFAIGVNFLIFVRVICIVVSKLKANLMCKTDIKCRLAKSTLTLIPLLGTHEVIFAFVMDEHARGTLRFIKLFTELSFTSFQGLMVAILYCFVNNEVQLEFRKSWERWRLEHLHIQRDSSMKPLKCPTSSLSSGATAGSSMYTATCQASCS

Regarding `CC[C@H](C)[C@H](NC(=O)[C@H](Cc1ccccc1)NC(=O)[C@@H](NC(=O)CNC(=O)[C@H](CCC(=O)O)NC(=O)C(C)(C)NC(=O)[C@H](Cc1ccc(O)cc1)NC)[C@@H](C)O)C(=O)N[C@@H](CO)C(=O)N[C@@H](CC(=O)O)C(=O)N[C@@H](Cc1ccc(O)cc1)C(=O)N[C@@H](CO)C(=O)N[C@H](C(=O)NC(C)(C)C(=O)N[C@@H](CCCCNC(=O)CNC(=O)CNC(=O)CNC(=O)CNC(=O)CNC(=O)CCCCCCCCCCCCCCCCC(=O)O)C(=O)N[C@@H](CC(=O)O)C(=O)N[C@@H](CCCNC(=N)N)C(=O)NC(C)(C)C(=O)N[C@@H](C)C(=O)N[C@@H](CCC(N)=O)C(=O)NC(C)(C)C(=O)N[C@@H](CC(=O)O)C(=O)N[C@@H](Cc1ccccc1)C(=O)N[C@H](C(=O)N[C@@H](CC(N)=O)C(=O)N[C@@H](Cc1c[nH]c2ccccc12)C(=O)N[C@@H](CC(C)C)C(=O)N[C@@H](CC(C)C)C(=O)N[C@@H](C)C(=O)N[C@@H](CCC(N)=O)C(=O)N[C@@H](CO)C(=O)N1CCC[C@H]1C(=O)N[C@@H](CO)C(=O)N[C@@H](CO)C(=O)NCC(=O)N[C@@H](C)C(=O)N1CCC[C@H]1C(=O)N1CCC[C@H]1C(=O)N1CCC[C@H]1C(=O)N[C@@H](CO)C(=O)O)C(C)C)[C@@H](C)CC` [Compound 47], the “Oral Glucose Tolerance Test Percent decrease in blood glucose AUC (%) over 60 mins” value with C57BL/6J mice is 48% (3 nmol/kg). Besides, the solubility in series [1] (setting [2]) is at least 30 mg/mL; in series [1] (setting [3]), at least 15 mg/mL.

For `CC[C@H](C)[C@H](NC(=O)[C@H](Cc1ccccc1)NC(=O)[C@@H](NC(=O)CNC(=O)[C@H](CCC(=O)O)NC(=O)C(C)(C)NC(=O)[C@@H](N)Cc1ccc(O)cc1)[C@@H](C)O)C(=O)N[C@@H](CO)C(=O)N[C@@H](CC(=O)O)C(=O)N[C@@H](Cc1ccc(O)cc1)C(=O)N[C@@H](CO)C(=O)N[C@H](C(=O)NC(C)(C)C(=O)N[C@@H](CCCCNC(=O)CNC(=O)CNC(=O)CNC(=O)CNC(=O)CNC(=O)CCCCCCCCCCCCCCCCC(=O)O)C(=O)N[C@@H](CC(=O)O)C(=O)N[C@@H](CCCNC(=N)N)C(=O)NC(C)(C)C(=O)N[C@@H](C)C(=O)N[C@@H](CCC(N)=O)C(=O)N[C@@H](C)C(=O)N[C@@H](CC(=O)O)C(=O)N[C@@H](Cc1ccccc1)C(=O)N[C@H](C(=O)N[C@@H](CCC(=O)O)C(=O)N[C@@H](Cc1c[nH]c2ccccc12)C(=O)N[C@@H](CC(C)C)C(=O)N[C@@H](CC(C)C)C(=O)N[C@@H](C)C(=O)N[C@@H](CCC(N)=O)C(=O)N[C@@H](CCCNC(=N)N)C(=O)NCC(=O)O)C(C)C)[C@@H](C)CC` [Compound 146], the “Oral Glucose Tolerance Test Percent decrease in blood glucose AUC (%) over 60 mins” value in the series with C57BL/6J mice is given as 52% (3 nmol/kg). Also, the solubility in series [1] (pH 7.4) was at least 15 mg/mL; in series [1] (pH 7.4, aqueous buffer), at least 30 mg/mL.

Regarding `CC[C@H](C)[C@H](NC(=O)[C@H](CO)NC(=O)[C@H](Cc1ccc(O)cc1)NC(=O)[C@H](CC(=O)O)NC(=O)[C@H](CO)NC(=O)[C@@H](NC(=O)[C@H](Cc1ccccc1)NC(=O)[C@@H](NC(=O)CNC(=O)[C@H](CCC(=O)O)NC(=O)C(C)(C)NC(=O)[C@H](Cc1ccc(O)cc1)NC)[C@@H](C)O)[C@@H](C)CC)C(=O)N[C@@H](C)C(=O)N[C@@H](CCCCNC(=O)CNC(=O)CNC(=O)CNC(=O)CNC(=O)CNC(=O)CCCCCCCCCCCCCCCCC(=O)O)C(=O)N[C@@H](CC(=O)O)C(=O)N[C@@H](CCCNC(=N)N)C(=O)NC(C)(C)C(=O)N[C@@H](C)C(=O)N[C@@H](CCC(N)=O)C(=O)NC(C)(C)C(=O)N[C@@H](CC(=O)O)C(=O)N[C@@H](Cc1ccccc1)C(=O)N[C@H](C(=O)N[C@@H](CC(N)=O)C(=O)N[C@@H](Cc1c[nH]c2ccccc12)C(=O)N[C@@H](CC(C)C)C(=O)N[C@@H](CC(C)C)C(=O)N[C@@H](C)C(=O)N[C@@H](CCC(N)=O)C(=O)N[C@@H](CCCNC(=N)N)C(=O)NCC(=O)O)C(C)C` [Compound 63], in the series with C57BL/6J mice, the “Oral Glucose Tolerance Test Percent decrease in blood glucose AUC (%) over 60 mins” value is 41% (3 nmol/kg). Further, in series [1] (pH 7.4), the solubility was at least 15 mg/mL.

For `CC[C@H](C)[C@H](NC(=O)[C@H](Cc1ccccc1)NC(=O)[C@@H](NC(=O)CNC(=O)[C@H](CCC(=O)O)NC(=O)C(C)(C)NC(=O)[C@H](Cc1ccc(O)cc1)NC)[C@@H](C)O)C(=O)N[C@@H](CO)C(=O)N[C@@H](CC(=O)O)C(=O)N[C@@H](Cc1ccc(O)cc1)C(=O)N[C@@H](CO)C(=O)N[C@H](C(=O)NC(C)(C)C(=O)N[C@@H](CCCCNC(=O)CNC(=O)CNC(=O)CNC(=O)CNC(=O)CNC(=O)CCCCCCCCCCCCCCCCC(=O)O)C(=O)N[C@@H](CC(=O)O)C(=O)N[C@@H](CCCNC(=N)N)C(=O)NC(C)(C)C(=O)N[C@@H](C)C(=O)N[C@@H](CCC(N)=O)C(=O)NC(C)(C)C(=O)N[C@@H](CC(N)=O)C(=O)N[C@@H](Cc1ccccc1)C(=O)N[C@H](C(=O)N[C@@H](CC(N)=O)C(=O)N[C@@H](Cc1c[nH]c2ccccc12)C(=O)N[C@@H](CC(C)C)C(=O)N[C@@H](CC(C)C)C(=O)N[C@@H](C)C(=O)N[C@@H](CCC(N)=O)C(=O)N[C@@H](CO)C(=O)N1CCC[C@H]1C(=O)N[C@@H](CO)C(=O)N[C@@H](CO)C(=O)NCC(=O)N[C@@H](C)C(=O)N1CCC[C@H]1C(=O)N1CCC[C@H]1C(=O)N1CCC[C@H]1C(=O)N[C@@H](CO)C(=O)O)C(C)C)[C@@H](C)CC` [Compound 96], the “Oral Glucose Tolerance Test Percent decrease in blood glucose AUC (%) over 60 mins” value in the series on C57BL/6J mice is given as 80% (3 nmol/kg). Moreover, the solubility in series [1] (setting [2]) is at least 60 mg/mL; in series [1] (setting [3]) it was at least 15 mg/mL.

`CC[C@H](C)[C@H](NC(=O)[C@H](CO)NC(=O)[C@H](Cc1ccc(O)cc1)NC(=O)[C@H](CC(=O)O)NC(=O)[C@H](CO)NC(=O)[C@@H](NC(=O)[C@H](Cc1ccccc1)NC(=O)[C@@H](NC(=O)CNC(=O)[C@H](CCC(=O)O)NC(=O)C(C)(C)NC(=O)[C@H](Cc1ccc(O)cc1)NC)[C@@H](C)O)[C@@H](C)CC)C(=O)N[C@@H](C)C(=O)N[C@@H](CCCCNC(=O)CNC(=O)CNC(=O)CNC(=O)CNC(=O)CNC(=O)CCCCCCCCCCCCCCCCC(=O)O)C(=O)N[C@@H](CC(=O)O)C(=O)N[C@@H](CO)C(=O)NC(C)(C)C(=O)N[C@@H](C)C(=O)N[C@@H](CCC(N)=O)C(=O)NC(C)(C)C(=O)N[C@@H](CC(=O)O)C(=O)N[C@@H](Cc1ccccc1)C(=O)N[C@H](C(=O)N[C@@H](CC(N)=O)C(=O)N[C@@H](Cc1c[nH]c2ccccc12)C(=O)N[C@@H](CC(C)C)C(=O)N[C@@H](CC(C)C)C(=O)N[C@@H](C)C(=O)N[C@@H](CCC(N)=O)C(=O)N[C@@H](CCCCN)C(=O)NCC(=O)O)C(C)C` [Compound 75]: at human GLP-1R (setting [4]), the EC50 worked out at 550 nM. For the same molecule, the solubility in series [1] (pH 7.4) is at least 15 mg/mL; in series [1] (pH 7.4, aqueous buffer), at least 30 mg/mL.

`CC[C@H](C)[C@H](NC(=O)[C@H](Cc1ccccc1)NC(=O)[C@@H](NC(=O)CNC(=O)[C@H](CCC(=O)O)NC(=O)C(C)(C)NC(=O)[C@H](Cc1ccc(O)cc1)NC)[C@@H](C)O)C(=O)N[C@@H](CO)C(=O)N[C@@H](CC(=O)O)C(=O)N[C@@H](Cc1ccc(O)cc1)C(=O)N[C@@H](CO)C(=O)N[C@H](C(=O)NC(C)(C)C(=O)N[C@@H](CCCCNC(=O)CNC(=O)CNC(=O)CNC(=O)CNC(=O)CNC(=O)CCCCCCCCCCCCCCCC(=O)O)C(=O)N[C@@H](CC(=O)O)C(=O)N[C@@H](CCCNC(=N)N)C(=O)NC(C)(C)C(=O)N[C@@H](C)C(=O)N[C@@H](CCC(N)=O)C(=O)NC(C)(C)C(=O)N[C@@H](CC(N)=O)C(=O)N[C@@H](Cc1ccccc1)C(=O)N[C@H](C(=O)N[C@@H](CC(N)=O)C(=O)N[C@@H](Cc1c[nH]c2ccccc12)C(=O)N[C@@H](CC(C)C)C(=O)N[C@@H](CC(C)C)C(=O)N[C@@H](C)C(=O)N[C@@H](CCC(N)=O)C(=O)N[C@@H](CO)C(=O)N1CCC[C@H]1C(=O)N[C@@H](CO)C(=O)N[C@@H](CO)C(=O)NCC(=O)N[C@@H](C)C(=O)N1CCC[C@H]1C(=O)N1CCC[C@H]1C(=O)N1CCC[C@H]1C(=O)N[C@@H](CO)C(=O)O)C(C)C)[C@@H](C)CC` [Compound 95] yielded an EC50 on human GLP-1R (Human GLP1R cAMP EC50, HEK293T (nM)) of 17.4 nM. Moreover, the figures for the solubility in series [1] (setting [2]) and in series [1] (setting [3]) were at least 60 mg/mL and at least 15 mg/mL, respectively.

In the case of `CC[C@H](C)[C@H](NC(=O)[C@H](CO)NC(=O)[C@H](Cc1ccc(O)cc1)NC(=O)[C@H](CC(=O)O)NC(=O)[C@H](CO)NC(=O)[C@@H](NC(=O)[C@H](Cc1ccccc1)NC(=O)[C@@H](NC(=O)CNC(=O)[C@H](CCC(=O)O)NC(=O)C(C)(C)NC(=O)[C@H](Cc1ccc(O)cc1)NC)[C@@H](C)O)[C@@H](C)CC)C(=O)N[C@@H](C)C(=O)N[C@@H](CCCCNC(=O)CNC(=O)CNC(=O)CNC(=O)CNC(=O)CNC(=O)CCCCCCCCCCCCCCCCC(=O)O)C(=O)N[C@@H](CC(=O)O)C(=O)N[C@@H](CCCCN)C(=O)NC(C)(C)C(=O)N[C@@H](C)C(=O)N[C@@H](CCC(N)=O)C(=O)NC(C)(C)C(=O)N[C@@H](CC(=O)O)C(=O)N[C@@H](Cc1ccccc1)C(=O)N[C@H](C(=O)N[C@@H](CC(N)=O)C(=O)N[C@@H](Cc1c[nH]c2ccccc12)C(=O)N[C@@H](CC(C)C)C(=O)N[C@@H](CC(C)C)C(=O)N[C@@H](C)C(=O)N[C@@H](CCC(N)=O)C(=O)N[C@@H](CCCCN)C(=O)NCC(=O)O)C(C)C` [Compound 76], the half-maximal effective concentration (EC50) at human GLP-1R (setting [4]) worked out at 28.8 nM. Further, the solubility in series [1] (pH 7.4) is at least 15 mg/mL; in series [1] (pH 7.4, aqueous buffer), at least 30 mg/mL.

Source of the values: US20230143604A1, “QW DOSING OF GIP RECEPTOR AGONIST PEPTIDE COMPOUNDS AND USES THEREOF” (TAKEDA PHARMACEUTICAL COMPANY LIMITED, priority 2020, published 2023).
